{
  "source": "paper PMC10788856",
  "about": "“Mimicking Nonribosomal Peptides from the Marine Actinomycete Streptomyces sp. H-KF8 Leads to Antimicrobial Peptides” (ACS Infectious Diseases, 2023)",
  "key": {"[1]": {"test_system": "E. coli MC4100 pABCON2-fhuA ΔC/Δ4L", "experiment": "DiSC(3)5 microscopy (membrane potential), outer membrane permeable strain", "format": "cell-based", "details": "1× MIC; 10 and 60 min; 0.5 μM DiSC(3)5", "protocol": "To test this hypothesis, we employed an E. coli strain that overexpresses the outer membrane porin FhuA, making these cells more permeable to most fluorescence dyes including DiSC(3)5.[41]\nThe membrane potential of E. coli CCUG31246 and E. coli MC4100 carrying pABCON2-fhuA ΔC/Δ4L was measured by DiSC(3)5 microscopy according to ref. ([40]) with minor modifications. Cells were grown in 1:10 BHI containing 50 μg/mL bovine serum albumin to an OD600 of 0.3 prior to antibiotic treatment with the respective peptides for 10 and 60 min. Samples were stained with 0.5 μM DiSC(3)5 for 15 min (added 5 min before adding antibiotics for the 10 min time point and after 45 min of antibiotic treatment for the 60 min time point). Stained samples were spotted on 1.2% agarose, sealed with a gene frame, and imaged immediately. Microscopy was performed as described above, and fluorescence intensity was analyzed with the same parameters used for propidium iodide detection."}, "S. aureus": {"test_system": "S. aureus", "experiment": "microbe, parasite or virus in culture", "format": "cell-based", "details": "16 h"}, "[2]": {"test_system": "Candida albicans (ATCC 64549/CCUG31028)", "experiment": "Minimum microbicidal concentration (MMC99) assay", "format": "cell-based, C. albicans", "details": "BHI diluted 1/100, 37 °C, median, n = 3", "procedure": "(§1) The microbicidal activity of the synthetic peptides was assessed against S. aureus (ATCC 12600; American Type Culture Collection, Manassas, VA, USA), Escherichia coli (CCUG 31246; Culture Collection, University of Gothenburg, Sweden), and Candida albicans (ATCC 64549/CCUG31028) using an MMC assay, as described previously by […] et al. (specific details in Supporting Information, pages 10, 11).[28] The assay was performed in BHI diluted 1/100 (BHI100). […] page 11: Table S5. Energy and structural ensembles of synthesized peptides. […] Energy -3887.06 -3620.88 -4968.42 -2163.76 -2646.75 Van der Waals solv. Energy 117.32 91.57 183.20 -88.88 -139.89 Mean RMSD* (Å), mean±SD […] Heavy atoms 1.87 ± 0.33 1.77 ± 0.50 0.98 ± 0.34 0.63 ±0.22 2.88 ±0.62 MMC99 activity including salt stability measurements Antimicrobial activity of L2 and L3 in the presence of NaCl. 1Table S6. Peptide MMC99 (μg/ml) sin NaCl S. aureus E.coli C. albicans (mM) 2[…] 0 50 25 25 85 - - - - - - >200 >200 >200 150 - - - - - - >200 >200 >200 3L 0 12.5 12.5 25 12,5 6.3 6.3 12.5 6.3 12.5 […] 150 >400 >400 (-)2 >400 >400 >400 >200 >200 >200 […] or 150 mM NaCl. L2 and L3 were serially diluted in twofold steps with a starting dilution of 200 μg/ml […] All sample dilutions were run in duplicates (L2) or triplicates (L3). 2 The growth of S. aureus at 24 h in BHI 100 with 85 or 150 mM NaCl was reduced. Minimum microbicidal concentration (MMC), killing 99% of the inoculum. All microorganisms were cultured in brain-heart infusion broth (BHI) overnight on a shaker at 37°C. The cultures were thereafter transferred to fresh BHI broth in volumes constituting 10% of total, and incubated for an additional 2 h to reach exponential growth phase. The bacterial cultures were washed once in BHI diluted 1/100 (BHI100), followed by resuspension in BHI100. The cell suspensions were diluted to a density of […] (bacteria) or 2x10^7 CFU/ml (yeast), as estimated by optical density measurement at 590 nm. […] Serum stability Figure S 133. […] A) peptide L2 B) peptide L3. C) peptide L3-K. D) peptide C3."}, "[3]": {"test_system": "Escherichia coli (CCUG 31246)", "experiment": "Minimum microbicidal concentration (MMC99) assay", "format": "cell-based, E. coli", "details": "BHI diluted 1/100", "procedure": "as §1"}},
  "note": "Numbered stars: 1 amine (or outer) side, 2 acyl side, 3 side chain; on linkers, the order of the positions; unused ones are H or OH. Bridge positions count the residues as written; N and C are the ends. Square brackets hold non-standard residues; d marks the D form. Peptide text beside a SMILES is read from it. Tyr(3-NO2) = N[C@@H](Cc1ccc(O)c([N+](=O)[O-])c1)C(=O)O; Glutaryl = O=C(CCCC(=O)[*:2])[*:1]; Orn = NCCC[C@H](N)C(=O)O",
  "data": [
    {"smiles": "CC(C)[C@H]1NC(=O)[C@H](CCCN)NC(=O)[C@H]([C@@H](C)O)NC(=O)[C@H](CCCN)NC(=O)[C@H](Cc2c[nH]c3ccccc23)NC(=O)[C@@H](C)NC(=O)[C@@H](C(C)C)NC(=O)[C@@H](C)NC(=O)[C@H](Cc2c[nH]c3ccccc23)NC(=O)CCCC(=O)NCCCC[C@@H](C(N)=O)NC(=O)[C@H](Cc2ccc(O)c([N+](=O)[O-])c2)NC1=O", "note": "[C3] (W[dA][dV][dA]W[Orn]T[Orn][dV][Tyr(3-NO2)]K-NH2; linker N-11 via Glutaryl)", "values": [
      {"measurement": "membrane depolarization in the FhuA-overexpressing strain", "setting": "[1]", "result": "stronger depolarization in the FhuA-overexpressing strain"},
      {"measurement": "S. aureus MIC", "setting": "S. aureus", "result": ">512", "unit": "µg/mL"},
      {"measurement": "C. albicans MMC99 2 h", "setting": "[2]; 2 h", "result": ">100", "unit": "µg/mL"},
      {"measurement": "C. albicans MMC99 6 h", "setting": "[2]; 6 h", "result": ">100", "unit": "µg/mL"},
      {"measurement": "C. albicans MMC99 24 h", "setting": "[2]; 24 h", "result": ">100", "unit": "µg/mL"},
      {"measurement": "active concentrations against E. coli (MMC99, text)", "setting": "[3]", "result": "≥ 100", "unit": "µg/mL"},
      {"measurement": "E. coli MMC99 2 h", "setting": "[3]; 37 °C, 2 h, median, n = 3", "result": ">100", "unit": "µg/mL"},
      {"measurement": "E. coli MMC99 6 h", "setting": "[3]; 37 °C, 6 h, median, n = 3", "result": ">100", "unit": "µg/mL"},
      {"measurement": "E. coli MMC99 24 h", "setting": "[3]; 37 °C, 24 h, median, n = 3", "result": 100, "unit": "µg/mL"}
    ]}
  ]
}
